Experimental findings from ChEMBL document CHEMBL2424625, “Synthesis and structure-activity relationships of novel indazolyl glucocorticoid receptor partial agonists” (Bioorg Med Chem Lett, 2013) are described below.

Active and inactive are the calls of the source. The calls are words filed in the database; no cut-off is given here.

The target in the assay is T1, Glucocorticoid receptor (Homo sapiens) (UniProt P04150).
T1 sequence (whole entry): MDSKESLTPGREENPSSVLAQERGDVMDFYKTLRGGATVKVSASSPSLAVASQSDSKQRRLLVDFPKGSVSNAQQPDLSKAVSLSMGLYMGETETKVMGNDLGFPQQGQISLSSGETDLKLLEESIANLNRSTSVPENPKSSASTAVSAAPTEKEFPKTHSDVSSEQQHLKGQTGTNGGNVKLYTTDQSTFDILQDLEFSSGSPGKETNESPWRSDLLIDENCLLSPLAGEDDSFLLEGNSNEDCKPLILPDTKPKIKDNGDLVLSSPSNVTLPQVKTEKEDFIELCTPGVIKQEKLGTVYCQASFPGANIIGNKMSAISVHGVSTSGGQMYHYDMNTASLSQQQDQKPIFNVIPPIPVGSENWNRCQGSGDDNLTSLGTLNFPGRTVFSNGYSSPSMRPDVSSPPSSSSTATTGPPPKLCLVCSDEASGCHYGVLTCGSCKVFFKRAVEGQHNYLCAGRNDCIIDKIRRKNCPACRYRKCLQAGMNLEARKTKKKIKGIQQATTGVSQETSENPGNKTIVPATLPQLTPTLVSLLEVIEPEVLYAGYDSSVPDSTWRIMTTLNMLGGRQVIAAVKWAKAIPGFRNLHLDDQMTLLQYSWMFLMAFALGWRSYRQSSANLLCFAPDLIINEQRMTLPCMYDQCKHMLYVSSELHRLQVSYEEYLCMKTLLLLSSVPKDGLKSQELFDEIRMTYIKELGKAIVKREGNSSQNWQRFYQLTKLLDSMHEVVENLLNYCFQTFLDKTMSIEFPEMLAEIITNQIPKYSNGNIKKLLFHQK
Description: Partial agonist activity at glucocorticoid receptor (unknown origin) by fluorescence assay.

Regarding `CC(C)(C)NC(=O)NCC(C)(C)[C@@H](c1ccccc1)c1ccc2c(cnn2-c2ccc(F)cc2)c1`, the outcome was Active.

Consider `CC(C)(CNS(=O)(=O)CC(F)(F)F)[C@@H](c1ccccc1)c1ccc2c(cnn2-c2ccc(F)cc2)c1`, for which the outcome was Active.
